Literature values, collected in patent publication US20060172402A1, “Production of vanillin in microbial cells” (priority 2002, published 2006).

system: tobacco class II COMT; details: Maury et al., 1999

| Compound | activity of the enzyme against the substrate |
| --- | --- |
| O=C(O)/C=C/c1ccc(O)c(O)c1 [Caffeic acid] | no activity |
| COc1cc(/C=C/C(=O)O)cc(O)c1O [5-OH-Ferulic acid] | no activity |
| O=Cc1ccc(O)c(O)c1 [3,4-Dihydioxybenzaldehyde, 3,4-dihydroxybenzaldehyde] | did have activity |
